In general, EC50 refers to the concentration at which the effect is half-maximal. The term AC50 denotes the concentration at which the activity in the assay is half-maximal. For orientation: CC50 means the concentration that lowers cell viability or growth by half. As a reminder, the IC50 is the concentration that inhibits the measured activity by half.

These results are taken from ChEMBL document CHEMBL1201862, “PubChem BioAssay data set” (2004).

The source made the active and inactive calls. Where only a bound is given, the exact number is not on record here.

Sequence of Luciferin 4-monooxygenase (P08659 whole entry): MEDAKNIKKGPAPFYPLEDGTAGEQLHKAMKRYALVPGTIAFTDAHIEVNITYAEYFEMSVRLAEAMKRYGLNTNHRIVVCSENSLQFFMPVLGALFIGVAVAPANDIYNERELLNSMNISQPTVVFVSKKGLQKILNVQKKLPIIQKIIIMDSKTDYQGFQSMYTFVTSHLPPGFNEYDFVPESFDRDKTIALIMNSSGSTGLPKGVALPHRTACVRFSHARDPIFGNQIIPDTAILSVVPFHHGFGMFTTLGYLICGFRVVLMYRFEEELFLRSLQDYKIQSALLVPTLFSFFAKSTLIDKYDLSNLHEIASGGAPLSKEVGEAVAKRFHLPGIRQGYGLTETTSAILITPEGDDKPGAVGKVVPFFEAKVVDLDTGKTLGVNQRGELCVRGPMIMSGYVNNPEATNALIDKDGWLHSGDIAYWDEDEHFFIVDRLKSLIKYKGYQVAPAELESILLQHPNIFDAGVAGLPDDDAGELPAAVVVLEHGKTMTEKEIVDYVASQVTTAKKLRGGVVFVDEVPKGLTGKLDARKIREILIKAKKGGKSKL

Test system in the first assay: not listed separately
Put plainly: inhibitors of firefly luciferase expression or activity, dose response, H4 neuroglioma cells, luminescence (AID 1990). It counts as functional, cell-based.
Conditions: not given
For the molecule `Cc1ccc(-n2nc3c(=O)n(CC(=O)NCc4ccc(C)o4)nc(C)c3c2C)cc1`, the EC50 was 17.8 µM (active).

`CC(C)CCn1nc(C(=O)Nc2nc3c(s2)CCCC3)c2ccccc2c1=O`: the EC50 was 16.9 µM (active).

Turning to `CO/C(O)=C1\C(C)=Nc2nnnn2C1c1cc(OC)ccc1OC` (configuration not stated), the EC50 is recorded as > 120 µM (not active).

With `CCOC(=O)c1c(NC(=O)Cc2cccs2)sc(C(=O)N2CCCCC2)c1C`, the EC50 was 14.6 µM (active).

With `CCCC(=O)Nc1cc(C(=O)N2CCC3(CC2)OCCO3)ccc1S(=O)(=O)c1ccc(C)cc1`, the EC50 is given as > 120 µM (not active).

For a further assay, the target named is Cytochrome P450 2C19 (Homo sapiens, UniProt P33261). Put plainly: Cytochrome panel assay with activity outcomes. Panel member name: p450-cyp2c19 Compounds with AC50 equal or less than 10 uM are considered active. Format: functional. As to conditions: read-out: AC50.
Sequence of Cytochrome P450 2C19 (P33261 whole entry): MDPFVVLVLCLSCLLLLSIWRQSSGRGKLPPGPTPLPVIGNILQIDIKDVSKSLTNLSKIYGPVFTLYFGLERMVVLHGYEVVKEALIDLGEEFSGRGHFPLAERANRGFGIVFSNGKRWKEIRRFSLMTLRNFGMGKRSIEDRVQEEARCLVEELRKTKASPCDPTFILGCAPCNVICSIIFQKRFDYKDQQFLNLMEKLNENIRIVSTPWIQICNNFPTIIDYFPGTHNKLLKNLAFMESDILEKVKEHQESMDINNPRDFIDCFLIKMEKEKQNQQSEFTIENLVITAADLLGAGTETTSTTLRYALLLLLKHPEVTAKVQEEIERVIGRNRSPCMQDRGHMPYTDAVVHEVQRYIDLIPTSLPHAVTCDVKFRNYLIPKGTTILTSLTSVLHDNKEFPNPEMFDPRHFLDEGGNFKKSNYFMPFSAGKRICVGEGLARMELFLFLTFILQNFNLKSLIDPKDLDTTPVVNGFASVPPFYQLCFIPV
Turning to `Cc1ccc(S(=O)(=O)N2CCN(C(=O)CN3CCN(C)CC3)C2)cc1`, the AC50 is 28.2 µM (inconclusive).

A further assay concerns the target Luciferin 4-monooxygenase (Photinus pyralis, UniProt P08659). Put plainly: firefly luciferase enzyme inhibitors, dose response, biochemical, luminescence (AID 1891).
Conditions: not given
Turning to `Cc1ccccc1N=C(S)c1ccc2ccccc2n1`, the EC50 is recorded as > 112 µM (not active).

Consider `Nc1nc2sc3c(c2cc1C(=O)N1CCOCC1)CCCC3`, for which the EC50 was > 112 µM (not active).

Take `CCOc1cccc(-c2c(C(=O)N/N=C/c3ccco3)nnn2-c2nonc2N)c1`: the EC50 is > 112 µM (not active).

As for `COc1ccc(-c2nn(-c3ccccc3)cc2C(=O)O)cc1`, the EC50 is reported as > 112 µM (not active).

For the molecule `Cc1ccsc1C(=O)Nc1nc2ccccc2[nH]1`, the EC50 is 2.67 µM (active).

On to `Cc1ccc(S(=O)(=O)N2CCCC2C(=O)O)cc1` (configuration not stated), for which the EC50 is given as > 112 µM (not active).

Take `O=C(CSc1nnc2ccccn12)NNC(=O)c1ccc([N+](=O)[O-])cc1`: the concentration for a half-maximal effect (EC50) is recorded as > 112 µM (not active).

Regarding `COC(=O)c1c(-c2cccc3ccccc23)csc1NC(=O)Cc1ccc(OC)c(OC)c1`, the EC50 is listed as > 112 µM (not active).

Turning to `Cc1ccc(NC(=O)c2sccc2C)nc1`, the EC50 was 13.9 µM (active).

Turning to `Cc1nc2cc(NC(=O)Nc3cccc(F)c3)ccc2n1C`, the concentration for a half-maximal effect (EC50) is 5.89 µM (active).

Test system in a further assay: not listed separately
Briefly: inhibitors of intracellular T. cruzi replication, confirmation, NIH3T3 host cells, beta-gal luminescence (AID 2044).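 Also: intracellular parasites grown in NIH/3T3 mouse fibroblasts as host cells; luminescent beta-galactosidase reporter signal from transgenic T. cruzi replicating inside host cells; inhibitors lower the luminescence signal.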 Format: functional, cell-based.
Conditions: not given
With `NCC12CC3CC(C1)CC(c1ccc(Cl)cc1)(C3)C2`, the EC50 is 2.19 µM (active).

As for `COC(=O)c1c(-c2cccc3ccccc23)csc1NC(=O)Cc1ccc(OC)c(OC)c1`, the EC50 is 2.49 µM (active).

Test system in another assay: not listed separately
Put plainly: cytotoxicity toward NIH3T3 fibroblasts, dose response, counter-screen, cell-based, ATP luminescence, mouse fibroblasts (AID 2010).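 Also: cells exposed to compound for about 90 hours before reading.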 Format: functional.
Conditions: not given
In general terms: Counterscreens check selectivity or assay interference.
Regarding `NCC12CC3CC(C1)CC(c1ccc(Cl)cc1)(C3)C2`, the EC50 was > 60 µM (inconclusive).

Regarding `COC(=O)c1c(-c2cccc3ccccc23)csc1NC(=O)Cc1ccc(OC)c(OC)c1`, the EC50 is 12.6 µM (active).

Test system in a further assay: not listed separately
Briefly: Shn3 3'UTR reporter inhibitors, dose response, cell-based, Clone20 osteoblasts, firefly luciferase, cherry-picked (AID 624132).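 Also: firefly luciferase luminescence from reporter carrying the Shn3 3'UTR in osteoblasts.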 It counts as functional.
Conditions: not given
For `Cc1ccc(Cn2ccc(=O)c(OCc3c(Cl)cccc3Cl)c2C)cc1`, the AC50 is 6.11 µM (active).

For the molecule `COC(=O)c1c(-c2cccc3ccccc23)csc1NC(=O)Cc1ccc(OC)c(OC)c1`, the AC50 is 5.43 µM (active).

Test system in the next assay: not listed separately
Put plainly: HEp-2 cell cytotoxicity, dose response, cytotoxicity control for RSV inhibitor project, HTS (AID 2410). It counts as functional. As to conditions: human respiratory syncytial virus.
Regarding `CCOC(=O)C1=C(c2ccccc2)N=C(S)NC1c1cc([N+](=O)[O-])ccc1OC` (configuration not stated), the CC50 was > 50 µM (active).

Another assay concerns the target T1, Ubiquitin-conjugating enzyme E2 N (Homo sapiens, UniProt P61088).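 Also: Dose-response confirmation in a TR-FRET assay detecting UBC13-driven polyubiquitin chain formation, inhibition measured.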
T1 sequence (P61088 whole entry): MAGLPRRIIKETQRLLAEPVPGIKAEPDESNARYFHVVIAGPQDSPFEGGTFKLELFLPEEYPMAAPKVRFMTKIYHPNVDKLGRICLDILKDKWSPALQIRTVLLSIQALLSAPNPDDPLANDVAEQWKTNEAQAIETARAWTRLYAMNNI
Test: not given
Format: functional.
Conditions: not given
On to `NCC12CC3CC(C1)CC(c1ccc(Cl)cc1)(C3)C2`, for which the IC50 is > 20 µM (inactive).

Test system in a further assay: not listed separately
Briefly: Luminescence Cell-Based Dose Response HTS to Identify Inhibitors of 5'UTR Stem-Loop Driven Prion Protein mRNA Translation in H4 Neuroglioblastoma Cells. [Related pubchem assays: 1827 (Project Summary), 1813 (Primary HTS)]. It counts as functional.
Conditions: not given
For `Cc1ccc(-n2nc3c(=O)n(CC(=O)NCc4ccc(C)o4)nc(C)c3c2C)cc1`, the EC50 is 109 µM (active).

With `CC(C)CCn1nc(C(=O)Nc2nc3c(s2)CCCC3)c2ccccc2c1=O`, the EC50 is 12.9 µM (active).

As for `CO/C(O)=C1\C(C)=Nc2nnnn2C1c1cc(OC)ccc1OC` (configuration not stated), the EC50 was 18.3 µM (active).

For `CCOC(=O)c1c(NC(=O)Cc2cccs2)sc(C(=O)N2CCCCC2)c1C`, the EC50 was 22.2 µM (active).

Regarding `CCCC(=O)Nc1cc(C(=O)N2CCC3(CC2)OCCO3)ccc1S(=O)(=O)c1ccc(C)cc1`, the EC50 is reported as > 120 µM (not active).

A further assay concerns the target T2, Cytochrome P450 1A2 (Homo sapiens, UniProt P05177).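 Also: PubChem cytochrome P450 panel assay, CYP1A2 panel member.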
T2 sequence (P05177 whole entry): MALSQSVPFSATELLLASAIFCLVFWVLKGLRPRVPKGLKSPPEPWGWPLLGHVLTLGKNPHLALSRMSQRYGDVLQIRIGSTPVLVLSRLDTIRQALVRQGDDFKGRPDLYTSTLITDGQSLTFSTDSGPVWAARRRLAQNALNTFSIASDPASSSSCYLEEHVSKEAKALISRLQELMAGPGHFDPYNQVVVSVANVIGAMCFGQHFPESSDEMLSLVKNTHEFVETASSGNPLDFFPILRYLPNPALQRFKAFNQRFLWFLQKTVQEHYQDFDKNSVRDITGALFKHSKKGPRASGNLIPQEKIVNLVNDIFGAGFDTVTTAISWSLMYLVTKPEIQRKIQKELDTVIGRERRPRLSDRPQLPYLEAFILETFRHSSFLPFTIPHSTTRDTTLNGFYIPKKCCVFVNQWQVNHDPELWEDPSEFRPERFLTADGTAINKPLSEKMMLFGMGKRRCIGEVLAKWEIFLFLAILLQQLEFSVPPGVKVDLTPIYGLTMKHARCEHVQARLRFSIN
Test: not given
Conditions: not given
Regarding `Cc1ccc(S(=O)(=O)N2CCN(C(=O)CN3CCN(C)CC3)C2)cc1`, the half-maximal activity concentration (AC50) was 15.8 µM (inconclusive).

In the next assay the test system is Streptococcus sp. 'group A'. Put plainly: growth inhibition of control SK(-) GAS strain, dose response, counter-screen for streptokinase expression inhibitor project, luminescence, kanamycin, BacTiterGlo, confirmation (AID 1900). It counts as functional, organism-based.
Conditions: not given
For the molecule `Cc1ccc(Cn2ccc(=O)c(OCc3c(Cl)cccc3Cl)c2C)cc1`, the EC50 is 6.66 µM (active).

A further assay deals with Streptococcus. Put plainly: Group A Streptococcus viability loss, dose response, counter-screen for streptokinase expression inhibitor project, luminescence, BacTiterGlo (AID 1915).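 Also: potency for reduction of bacterial viability or growth.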 It counts as functional, organism-based.
Conditions: not given
On to `Cc1ccc(Cn2ccc(=O)c(OCc3c(Cl)cccc3Cl)c2C)cc1`, for which the EC50 is > 150 µM (not active).

Test system in another assay: not listed separately
Put plainly: Luminescence Cell-Based Dose Confirmation HTS to Identify Inhibitors of Platelet Dense Granule Release. [Related pubchem assays: 1663 (Primary HTS), 1678 (Summary of Project)]. Format: functional.
Conditions: not given
Regarding `Cc1ccccc1N=C(S)c1ccc2ccccc2n1`, the half-maximal effective concentration (EC50) is reported as > 112 µM (not active).

Regarding `Nc1nc2sc3c(c2cc1C(=O)N1CCOCC1)CCCC3`, the EC50 was > 112 µM (not active).

As to `CCOc1cccc(-c2c(C(=O)N/N=C/c3ccco3)nnn2-c2nonc2N)c1`, the EC50 was 14.8 µM (active).

In the case of `COc1ccc(-c2nn(-c3ccccc3)cc2C(=O)O)cc1`, the EC50 is on record as > 112 µM (not active).

`Cc1ccsc1C(=O)Nc1nc2ccccc2[nH]1`: the EC50 was 4.71 µM (active).

For the molecule `Cc1ccc(S(=O)(=O)N2CCCC2C(=O)O)cc1` (configuration not stated), the EC50 is reported as > 112 µM (not active).

As to `O=C(CSc1nnc2ccccn12)NNC(=O)c1ccc([N+](=O)[O-])cc1`, the concentration for a half-maximal effect (EC50) was > 112 µM (not active).

For the molecule `COC(=O)c1c(-c2cccc3ccccc23)csc1NC(=O)Cc1ccc(OC)c(OC)c1`, the EC50 is given as > 112 µM (not active).

Turning to `Cc1ccc(NC(=O)c2sccc2C)nc1`, the EC50 is 5.98 µM (active).

As for `Cc1nc2cc(NC(=O)Nc3cccc(F)c3)ccc2n1C`, the EC50 was 7.45 µM (active).

Test system in a further assay: not listed separately
Put plainly: inhibitors of SNCA 5'UTR-driven reporter translation, confirmation, H4 neuroglioma cells, luminescence (AID 1988). It counts as functional, cell-based.
Conditions: not given
Turning to `Cc1ccc(-n2nc3c(=O)n(CC(=O)NCc4ccc(C)o4)nc(C)c3c2C)cc1`, the EC50 is listed as > 120 µM (not active).

Turning to `CC(C)CCn1nc(C(=O)Nc2nc3c(s2)CCCC3)c2ccccc2c1=O`, the EC50 was 12.8 µM (active).

Turning to `CO/C(O)=C1\C(C)=Nc2nnnn2C1c1cc(OC)ccc1OC` (configuration not stated), the EC50 is recorded as > 120 µM (not active).

As for `CCOC(=O)c1c(NC(=O)Cc2cccs2)sc(C(=O)N2CCCCC2)c1C`, the EC50 is listed as > 120 µM (not active).

As to `CCCC(=O)Nc1cc(C(=O)N2CCC3(CC2)OCCO3)ccc1S(=O)(=O)c1ccc(C)cc1`, the EC50 is on record as > 120 µM (not active).

Test system in a further assay: not listed separately
Put plainly: HepG2 cell cytotoxicity, dose response, cytotoxicity control for Shn3 inhibitor project, CellTiter-Glo, cherry-picked (AID 624134).
Conditions: not given
It counts as functional, cell-based. (In general: In ATP-based viability assays light output follows the ATP content of the culture.)
In the case of `Cc1ccc(Cn2ccc(=O)c(OCc3c(Cl)cccc3Cl)c2C)cc1`, the AC50 was 60.6 µM (active).

Take `COC(=O)c1c(-c2cccc3ccccc23)csc1NC(=O)Cc1ccc(OC)c(OC)c1`: the AC50 was > 70 µM (inactive).

Test system in a further assay: not listed separately
Briefly: control 3'UTR Renilla luciferase suppression, dose response, counter-screen for Shn3 inhibitor project, cell-based, Clone20-Shn3RL, cherry-picked (AID 624133). Format: functional.
Conditions: not given
Turning to `Cc1ccc(Cn2ccc(=O)c(OCc3c(Cl)cccc3Cl)c2C)cc1`, the AC50 is 6.57 µM (active).

As for `COC(=O)c1c(-c2cccc3ccccc23)csc1NC(=O)Cc1ccc(OC)c(OC)c1`, the AC50 is 16.9 µM (active).

The next assay has as its target T3, Streptokinase A (Streptococcus pyogenes serotype M1, UniProt P10520).
T3 sequence (P10520 whole entry): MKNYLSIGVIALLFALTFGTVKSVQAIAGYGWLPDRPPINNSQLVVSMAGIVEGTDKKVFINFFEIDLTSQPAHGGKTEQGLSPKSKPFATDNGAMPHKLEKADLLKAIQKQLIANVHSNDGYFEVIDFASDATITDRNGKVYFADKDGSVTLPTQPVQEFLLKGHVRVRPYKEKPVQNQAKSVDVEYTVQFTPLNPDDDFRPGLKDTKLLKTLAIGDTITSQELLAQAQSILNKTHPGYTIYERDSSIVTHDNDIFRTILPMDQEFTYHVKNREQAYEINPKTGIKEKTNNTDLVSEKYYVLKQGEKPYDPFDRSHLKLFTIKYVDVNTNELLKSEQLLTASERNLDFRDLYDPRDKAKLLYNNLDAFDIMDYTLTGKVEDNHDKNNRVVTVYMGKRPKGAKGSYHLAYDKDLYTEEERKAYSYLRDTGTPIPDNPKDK
Put plainly: S. pyogenes streptokinase expression inhibitors, potency, dose response, plasminogen activation absorbance, OD405 (AID 1914).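 Also: secreted streptokinase activity via plasminogen activation per viability signal from cell pellet.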 It counts as functional, Streptococcus pyogenes M1 GAS.
Conditions: not given
In the case of `Cc1ccc(Cn2ccc(=O)c(OCc3c(Cl)cccc3Cl)c2C)cc1`, the EC50 is 13.7 µM (active).
